Measured values taken from PubChem BioAssay AID248 (DTP/NCI, 2004).
Values joined by “and” are separate entries in the source; they are usually repeats but may differ in a detail not shown here. Equal entries are not always repeated. Toxic doses and inconclusive results are not listed. Rule as the data show it: active = T/C of 150% or more; inactive = T/C below 125%.

Test system: L1210 leukemia ip in BDF1 mice, survival T/C
Experiment: NCI In Vivo Anticancer Drug Screen. Data for tumor model L1210 Leukemia (intraperitoneal) in B6D2F1 (BDF1) mice
Settings: endpoint: mean survival time, higher = longer survival
In short: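 Read-out is survival time, reported as the treated-group measurement over the vehicle-control measurement.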

[1] = dose: 100.0 mg/kg/injection, schedule: Q04DX002 (ip), vehicle: other
[2] = dose: 200.0 mg/kg/injection, schedule: Q04DX002 (ip), vehicle: other
[3] = dose: 100.0 mg/kg/injection, schedule: Q01DX009 (ip), vehicle: saline with Tween-80
[4] = dose: 200.0 mg/kg/injection, schedule: Q01DX009 (ip), vehicle: saline with Tween-80
[5] = dose: 400.0 mg/kg/injection, schedule: Q01DX009 (ip), vehicle: saline with Tween-80
[6] = dose: 100.0 mg/kg/injection, schedule: Q04DX003 (ip), vehicle: saline with Tween-80
[7] = dose: 200.0 mg/kg/injection, schedule: Q04DX003 (ip), vehicle: saline with Tween-80
[8] = dose: 400.0 mg/kg/injection, schedule: Q04DX003 (ip), vehicle: saline with Tween-80
[9] = dose: 100.0 mg/kg/injection, schedule: Q01DX001 (ip), vehicle: Klucel (hydroxypropylcellulose) (HPC)
[10] = dose: 100.0 mg/kg/injection, schedule: Q01DX009 (ip), vehicle: Klucel (hydroxypropylcellulose) (HPC)
[11] = dose: 100.0 mg/kg/injection, schedule: Q04DX003 (ip), vehicle: Klucel (hydroxypropylcellulose) (HPC)
[12] = dose: 200.0 mg/kg/injection, schedule: Q01DX001 (ip), vehicle: Klucel (hydroxypropylcellulose) (HPC)
[13] = dose: 200.0 mg/kg/injection, schedule: Q01DX009 (ip), vehicle: Klucel (hydroxypropylcellulose) (HPC)
[14] = dose: 200.0 mg/kg/injection, schedule: Q04DX003 (ip), vehicle: Klucel (hydroxypropylcellulose) (HPC)
[15] = dose: 400.0 mg/kg/injection, schedule: Q01DX001 (ip), vehicle: Klucel (hydroxypropylcellulose) (HPC)
[16] = dose: 400.0 mg/kg/injection, schedule: Q01DX009 (ip), vehicle: Klucel (hydroxypropylcellulose) (HPC)
[17] = dose: 400.0 mg/kg/injection, schedule: Q04DX003 (ip), vehicle: Klucel (hydroxypropylcellulose) (HPC)
[18] = dose: 75.0 mg/kg/injection, schedule: Q01DX001 (ip), vehicle: other
[19] = dose: 150.0 mg/kg/injection, schedule: Q01DX001 (ip), vehicle: other
[20] = dose: 4.0 mg/kg/injection, schedule: Q01DX015 (ip), vehicle: carboxymethylcellulose (CMC)
[21] = dose: 100.0 mg/kg/injection, schedule: Q01DX001 (ip), vehicle: saline
[22] = dose: 200.0 mg/kg/injection, schedule: Q01DX001 (ip), vehicle: saline
[23] = dose: 400.0 mg/kg/injection, schedule: Q01DX001 (ip), vehicle: saline
[24] = dose: 100.0 mg/kg/injection, schedule: Q04DX003 (ip), vehicle: saline
[25] = dose: 100.0 mg/kg/injection, schedule: Q04DX002 (ip), vehicle: saline with Tween-80
[26] = dose: 200.0 mg/kg/injection, schedule: Q04DX002 (ip), vehicle: saline with Tween-80
[27] = dose: 400.0 mg/kg/injection, schedule: Q04DX002 (ip), vehicle: saline with Tween-80

Measured: T/C

O=C(O)C12CCCC(CCC1)C2=O
inactive: dose: 75.0 mg/kg/injection, schedule: Q01DX001 (ip), vehicle: saline 100 % of control | dose: 150.0 mg/kg/injection, schedule: Q01DX001 (ip), vehicle: saline 102 % of control | dose: 300.0 mg/kg/injection, schedule: Q01DX001 (ip), vehicle: saline 100 % of control

CCCCCCCCCC(=O)N1C(C)CCC1C (stereo unspecified)
inactive: [1] 103 % of control | [2] 107 % of control

Cc1cc(NC(=O)SCCOC(=O)COc2ccc(Cl)cc2)ccc1Cl
inactive: [3] 94 % of control | [4] 88 % of control | [5] 90 % of control

O=C(Nc1cccnc1)C1=Cc2ccccc2OC1
inactive: [3] 95 % of control | [6] 103 % of control | [4] 94 % of control | [7] 98 % of control | [5] 105 % of control | [8] 107 % of control

CS(=O)(=O)Oc1cccc(C2CS(=O)(=O)c3ccccc3N2)c1 (stereo unspecified)
inactive: [9] 101 % of control | [10] 104 % of control | [11] 97 % of control | [12] 106 % of control | [13] 101 % of control | [14] 97 % of control | [15] 103 % of control | [16] 101 % of control | [17] 94 % of control

CN=C(N)c1ccc(N=C(N)c2ccc(-c3ccc(C(N)=Nc4ccc(C(N)=NC)cc4)cc3)cc2)cc1
inactive: dose: 2.25 mg/kg/injection, schedule: Q01DX Z (ip), vehicle: carboxymethylcellulose (CMC) 109 % of control | dose: 4.5 mg/kg/injection, schedule: Q01DX Z (ip), vehicle: carboxymethylcellulose (CMC) 115 % of control | dose: 50.0 mg/kg/injection, schedule: Q01DX Z (oral), vehicle: water 101 % of control | dose: 100.0 mg/kg/injection, schedule: Q01DX Z (oral), vehicle: water 112 % of control | dose: 200.0 mg/kg/injection, schedule: Q01DX Z (oral), vehicle: water 107 % of control
active: dose: 18.0 mg/kg/injection, schedule: Q01DX Z (ip), vehicle: carboxymethylcellulose (CMC) 184 % of control

C=CCONC(=O)Oc1ccccc1
inactive: [18] 106 % of control | [19] 97 % of control

CCOC(=O)c1ccc2c(c1)Cc1c-2cc(Br)c(N)c1Br
inactive: dose: 100.0 mg/kg/injection, schedule: Q01DX001 (ip), vehicle: carboxymethylcellulose (CMC) 100 % of control | dose: 200.0 mg/kg/injection, schedule: Q01DX001 (ip), vehicle: carboxymethylcellulose (CMC) 102 % of control | dose: 400.0 mg/kg/injection, schedule: Q01DX001 (ip), vehicle: carboxymethylcellulose (CMC) 91 % of control

CN(C)C(=O)SSC(=S)N(C)C
inactive: [20] 93 % of control | dose: 8.0 mg/kg/injection, schedule: Q01DX015 (ip), vehicle: carboxymethylcellulose (CMC) 92 % of control | dose: 16.0 mg/kg/injection, schedule: Q01DX015 (ip), vehicle: carboxymethylcellulose (CMC) 106 % of control | dose: 32.0 mg/kg/injection, schedule: Q01DX015 (ip), vehicle: carboxymethylcellulose (CMC) 97 % of control and 98 % of control | dose: 64.0 mg/kg/injection, schedule: Q01DX015 (ip), vehicle: carboxymethylcellulose (CMC) 98 % of control | dose: 128.0 mg/kg/injection, schedule: Q01DX015 (ip), vehicle: carboxymethylcellulose (CMC) 96 % of control

CCOC(=O)c1cc(Cl)c(N)c(Cl)c1
inactive: [10] 93 % of control | [13] 90 % of control | [16] 100 % of control

CCCCN=C(N)c1ccc(S(=O)(=O)N=C(N)N)cc1
inactive: [21] 97 % of control | [22] 101 % of control | [23] 97 % of control

CC(C)Sc1nn2nnnc2c2ccccc12
inactive: dose: 50.0 mg/kg/injection, schedule: Q04DX003 (ip), vehicle: saline 94 % of control | [24] 97 % of control | dose: 200.0 mg/kg/injection, schedule: Q04DX003 (ip), vehicle: saline 103 % of control

O=C(Cc1cccc([N+](=O)[O-])c1)Nc1ccccc1
inactive: [10] 91 % of control | [11] 96 % of control | [13] 98 % of control | [14] 96 % of control | [16] 93 % of control | [17] 102 % of control

CCOC(=O)N1CCC2(CC1)NC(=O)c1ccccc1N2
inactive: [3] 98 % of control | [6] 100 % of control | [4] 97 % of control | [7] 102 % of control | [5] 97 % of control | [8] 96 % of control

CC(C)CCNNCCC(C)C
inactive: [18] 108 % of control | [19] 104 % of control

CC(=O)CC(=O)CC(=O)c1ccccc1
inactive: dose: 50.0 mg/kg/injection, schedule: Q04DX003 (ip), vehicle: Klucel (hydroxypropylcellulose) (HPC) 108 % of control | [9] 97 % of control | [11] 96 % of control | [12] 93 % of control | [14] 105 % of control | [15] 102 % of control

Cc1ccc(NC(=O)c2ccccc2)cc1[As]=[As]c1cc(NC(=O)c2ccccc2)ccc1C (stereo unspecified)
inactive: dose: 1.0 mg/kg/injection, schedule: Q01DX015 (ip), vehicle: carboxymethylcellulose (CMC) 90 % of control | dose: 2.0 mg/kg/injection, schedule: Q01DX015 (ip), vehicle: carboxymethylcellulose (CMC) 95 % of control | [20] 101 % of control

Nc1nc2ncn(C3OC(CO)C(O)C3O)c2c(=O)[nH]1 (stereo unspecified)
inactive: [21] 105 % of control | [22] 104 % of control | [23] 104 % of control

CC(=O)NC1CCC(Cc2ccccc2)CC1 (stereo unspecified)
inactive: [25] 97 % of control | [26] 90 % of control | [27] 116 % of control

C1CCC2C3CCC(C3)C2CC1 (stereo unspecified)
inactive: [1] 122 % of control | [2] 92 % of control | dose: 400.0 mg/kg/injection, schedule: Q04DX002 (ip), vehicle: other 88 % of control

COc1cc2c(cc1OC)-c1cc3cc(OC)c(OC)cc3c(C)[n+]1CC2
inactive: dose: 12.5 mg/kg/injection, schedule: Q04DX002 (ip), vehicle: Klucel (hydroxypropylcellulose) (HPC) 102 % of control | dose: 25.0 mg/kg/injection, schedule: Q04DX002 (ip), vehicle: Klucel (hydroxypropylcellulose) (HPC) 105 % of control | dose: 50.0 mg/kg/injection, schedule: Q04DX002 (ip), vehicle: Klucel (hydroxypropylcellulose) (HPC) 105 % of control

[O-][n+]1onc(-c2ccccn2)c1-c1ccccn1
inactive: [25] 95 % of control | [26] 100 % of control | [27] 103 % of control

CCCCCCCCP(=O)(N1CC1C)N1CC1C (stereo unspecified)
inactive: dose: 25.0 mg/kg/injection, schedule: Q01DX009 (ip), vehicle: saline 98 % of control | dose: 50.0 mg/kg/injection, schedule: Q01DX009 (ip), vehicle: saline 104 % of control | dose: 100.0 mg/kg/injection, schedule: Q01DX009 (ip), vehicle: saline 98 % of control | [24] 91 % of control

Br/C=C(\Br)CBr
inactive: dose: 75.0 mg/kg/injection, schedule: Q01DX001 (sc), vehicle: olive oil, sesame oil, peanut oil 105 % of control | dose: 150.0 mg/kg/injection, schedule: Q01DX001 (sc), vehicle: olive oil, sesame oil, peanut oil 108 % of control

Cc1cccc2nc3nc(Cl)c(Cl)nc3n12
inactive: dose: 75.0 mg/kg/injection, schedule: Q01DX001 (ip), vehicle: acetone 98 % of control | dose: 150.0 mg/kg/injection, schedule: Q01DX001 (ip), vehicle: acetone 101 % of control | dose: 300.0 mg/kg/injection, schedule: Q01DX001 (ip), vehicle: acetone 92 % of control
